{"source": "patent US20050215435A1", "about": "“Phenylalanine derivatives as herbicides” (priority 2002, published 2005)", "assay_in_all_cases": "Greenhouse herbicidal action, post-emergence", "assay_type_in_all_cases": "in vivo", "key": {"[1]": {"test_system": "Setaria italica", "text": "(§1) The seeds of the test plants were sown separately for each species. For the post-emergence treatment, the test plants were first grown to a height of from 3 to 15 cm, depending on the plant habit, and only then treated with the active compounds which had been suspended or emulsified in water. The test plants were for this purpose either sown directly and grown in the same containers, or they were first grown separately as seedlings and transplanted into the test containers a few days prior to treatment. […] (active substance). Depending on the species, the plants were kept at 10-25° C. or 20-35° C. The test period extended over from 2 to 4 weeks. During this time, the plants were tended, and their response to the individual treatments was evaluated. Evaluation was carried out using a scale from 0 to 100. 100 means no emergence of the plants, or complete destruction of at least the aerial parts and 0 means no damage, or normal course of growth. The plants used in the greenhouse experiments were of the following species: [table]"}, "[2]": {"test_system": "Sinapis alba", "text": "as §1"}, "[3]": {"test_system": "Abutilon theophrasti", "text": "as §1"}, "[4]": {"test_system": "Chenopodium album", "conditions": "1.0 kg of a.s./ha", "text": "as §1"}}, "data": [{"compound": "CNC(=O)C(NC(=O)c1ccccc1C(F)(F)F)C(C)c1ccccc1F", "note": "(single isomer, unassigned) [Compound I-32]", "values": [{"measurement": "control of Setaria italica", "setting": "[1]; 0.095 kg of a.s./ha", "value": "very good control"}, {"measurement": "control of Sinapis alba", "setting": "[2]; 0.095 kg of a.s./ha", "value": "very good control"}]}, {"compound": "CNC(=O)[C@H](Cc1ccccc1C)NC(=O)c1ccccc1C(F)(F)F", "note": "[Compound I-19]", "values": [{"measurement": "control of Abutilon theophrasti", "setting": "[3]; 0.5 kg of a.s./ha", "value": "very good control"}, {"measurement": "control of Setaria italica", "setting": "[1]; 0.5 kg of a.s./ha", "value": "very good control"}]}, {"compound": "CNC(=O)[C@H](Cc1cccc(F)c1)NC(=O)c1cccc(F)c1C(F)(F)F", "note": "[Compound I-24]", "values": [{"measurement": "control of Abutilon theophrasti", "setting": "[3]; 0.5 kg of a.s./ha", "value": "very good control"}, {"measurement": "control of Sinapis alba", "setting": "[2]; 0.5 kg of a.s./ha", "value": "very good control"}]}, {"compound": "CNC(=O)[C@H](Cc1cccc(F)c1)NC(=O)c1cc(F)ccc1C(F)(F)F", "note": "[Compound I-25]", "values": [{"measurement": "control of Abutilon theophrasti", "setting": "[3]; 0.5 kg of a.s./ha", "value": "very good control"}, {"measurement": "control of Setaria italica", "setting": "[1]; 0.5 kg of a.s./ha", "value": "very good control"}, {"measurement": "control of Sinapis alba", "setting": "[2]; 0.5 kg of a.s./ha", "value": "very good control"}]}, {"compound": "CNC(=O)[C@H](Cc1ccccc1C)NC(=O)c1ccc(Cl)c(C(F)F)c1Cl", "note": "[Compound I-49]", "values": [{"measurement": "control of Abutilon theophrasti", "setting": "[3]; 1.91 kg of a.s./ha", "value": "very good control"}, {"measurement": "control of Abutilon theophrasti", "setting": "[3]; 3.0 kg of a.s./ha", "value": "very good control"}, {"measurement": "control of Setaria italica", "setting": "[1]; 1.91 kg of a.s./ha", "value": "very good control"}, {"measurement": "control of Setaria italica", "setting": "[1]; 3.0 kg of a.s./ha", "value": "very good control"}, {"measurement": "control of Sinapis alba", "setting": "[2]; 1.91 kg of a.s./ha", "value": "very good control"}, {"measurement": "control of Sinapis alba", "setting": "[2]; 3.0 kg of a.s./ha", "value": "very good control"}]}, {"compound": "CNC(=O)[C@H](Cc1ccccc1C)NC(=O)c1ccc(F)cc1C(F)(F)F", "note": "[Compound I-51]", "values": [{"measurement": "control of Abutilon theophrasti", "setting": "[3]; 1.0 kg of a.s./ha", "value": "very good control"}, {"measurement": "control of Chenopodium album", "setting": "[4]", "value": "very good control"}]}, {"compound": "CNC(=O)[C@H](Cc1ccccc1C)NC(=O)c1cccc(F)c1C(F)(F)F", "note": "[Compound I-53]", "values": [{"measurement": "control of Abutilon theophrasti", "setting": "[3]; 0.5 kg of a.s./ha", "value": "very good control"}, {"measurement": "control of Setaria italica", "setting": "[1]; 0.5 kg of a.s./ha", "value": "very good control"}, {"measurement": "control of Sinapis alba", "setting": "[2]; 0.5 kg of a.s./ha", "value": "very good control"}]}, {"compound": "CNC(=O)C(NC(=O)c1ccc(F)cc1C(F)(F)F)C(C)c1ccccc1F", "note": "(stereo not drawn) [II-7]", "values": [{"measurement": "control of Abutilon theophrasti", "setting": "[3]; 1.0 kg of a.s./ha", "value": "very good control"}, {"measurement": "control of Chenopodium album", "setting": "[4]", "value": "very good control"}]}, {"compound": "CNC(=O)C(Cc1ccccc1)NC(=O)c1ccc(F)cc1C(F)(F)F", "note": "(stereo not drawn) [II-91]", "values": [{"measurement": "control of Abutilon theophrasti", "setting": "[3]; 2.0 kg of a.s./ha", "value": "very good control"}, {"measurement": "control of Sinapis alba", "setting": "[2]; 2.0 kg of a.s./ha", "value": "very good control"}]}, {"compound": "CNC(=O)C(Cc1ccccc1C)NC(=O)c1ccccc1S(C)(=O)=O", "note": "(stereo not drawn) [II-111]", "values": [{"measurement": "control of Abutilon theophrasti", "setting": "[3]; 1.0 kg of a.s./ha", "value": "very good control"}, {"measurement": "control of Setaria italica", "setting": "[1]; 1.0 kg of a.s./ha", "value": "very good control"}, {"measurement": "control of Sinapis alba", "setting": "[2]; 1.0 kg of a.s./ha", "value": "very good control"}]}, {"compound": "Nα-(2-trifluoromethyl-4-fluorobenzoyl)-2-(1-methyl-1-(2-fluorophenyl))glycine-N-methylamide [II-15]", "values": [{"measurement": "control of Abutilon theophrasti", "setting": "[3]; 0.5 kg of a.s./ha", "value": "very good control"}, {"measurement": "control of Setaria italica", "setting": "[1]; 0.5 kg of a.s./ha", "value": "very good control"}, {"measurement": "control of Sinapis alba", "setting": "[2]; 0.5 kg of a.s./ha", "value": "very good control"}]}]}
